How the values were obtained:
[1] = system: mice; conditions: mice fasted for 17 hours; cited from earlier work
[2] = system: mice; conditions: cited from earlier work
[3] = in vivo; cited from earlier work
[4] = system: dogs; test: sham-feeding in dogs with esophageal, gastric and pancreatic fistulae: gastric and pancreatic secretion

## glucagon
[1]
  effect on food intake: ineffective

## H-(pyro)-Glu-His-GlyOH [appetite-retarding peptide]
[2]; 12 nmole daily for 20 days, dropped from a mean of 35 g
  body weight, minimum: 24 g
[2]; 12 nmole injected daily for 20 days, reduced from 5.7
  food consumption: 3.0 g per day
[2]; 12 nmole injected daily for 20 days
  duration of reduced food consumption: about 6 months
[3]
  acute effect on blood glucose: no acute effect
  acute effect on serum insulin levels: no acute effect

## secretin
[1]
  effect on food intake: ineffective

## caerulein
[4]; 0.5 mcg/kg/hour of caerulein
  maximal pancreatic protein secretion: 650±86 mg/15 mins.

## O=C[C@H](O)[C@@H](O)[C@H](O)[C@H](O)CO [glucose]
[1]
  effect on food intake: ineffective

## bovine serum albumin: bovine serum albumin
[1]
  effect on food intake: ineffective

## NCCc1c[nH]cn1 [histamine]
[4]; 320 mcg/kg/hour of histamine
  maximal acid output: 13.55±1.8 mEq/15 mins.
